Reference: ChEMBL document CHEMBL4732145, “Discovery of a PROTAC targeting ALK with in vivo activity” (Eur J Med Chem, 2021)

Legend:
[1] = test system: NCI-H1299; assay: Antiproliferative activity against human NCI-H1299 cells assessed as reduction in cell viability measured after 72 hrs by MTT assay; details: NCI-H1299, 72 h
[2] = test system: HeLa; assay: Antiproliferative activity against human HeLa cells assessed as reduction in cell viability measured after 72 hrs by MTT assay
[3] = test system: NCI-H3122; assay: Antiproliferative activity against human NCI-H3122 cells assessed as reduction in cell viability measured after 72 hrs by MTT assay; details: NCI-H3122, 72 h
[4] = test system: LO2 (Homo sapiens); assay: Cytotoxicity against human L02 cells assessed as reduction in cell viability measured after 72 hrs by MTT assay; details: l02, 72 h
[5] = test system: A549; assay: Antiproliferative activity against human A549 cells assessed as reduction in cell viability measured after 72 hrs by MTT assay; details: A549, 72 h
[6] = test system: NCI-H2228; assay: Antiproliferative activity against human NCI-H2228 cells assessed as reduction in cell viability measured after 72 hrs by MTT assay; details: NCI-H2228, 72 h
[7] = test system: NCI-H3122; assay: Antitumor activity against human NCI-H3122 cells xenografted in BALB/c nude mouse assessed as tumor growth inhibition at 25 mg/kg/day, ig administered for 15 days relative to control; assay type: functional; details: NCI-H3122, po, 360 h, time 15 day, read-out: TGI
[8] = molecular target: von Hippel-Lindau disease tumor suppressor/ALK tyrosine kinase receptor/Nucleophosmin (Homo sapiens) (UniProt Q9UM73+P06748+P40337); assay: Protac activity at VHL/NPM-ALK fusion protein in human SU-DHL-1 cells assessed as induction of NPM-ALK fusion protein degradation at 1 uM by Western blot analysis relative to control; assay type: cell-based
Sequence of von Hippel-Lindau disease tumor suppressor/ALK tyrosine kinase receptor/Nucleophosmin (Homo sapiens) (P06748 whole entry partner, the tested form may be a part): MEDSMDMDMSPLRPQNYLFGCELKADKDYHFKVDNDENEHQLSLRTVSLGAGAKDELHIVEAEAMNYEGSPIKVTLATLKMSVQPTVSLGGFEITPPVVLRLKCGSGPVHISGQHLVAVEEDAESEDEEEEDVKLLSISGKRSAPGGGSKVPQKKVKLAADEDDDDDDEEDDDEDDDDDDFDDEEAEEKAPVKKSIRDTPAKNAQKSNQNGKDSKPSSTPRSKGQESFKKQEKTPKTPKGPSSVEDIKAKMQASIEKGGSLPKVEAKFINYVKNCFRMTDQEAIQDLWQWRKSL
Sequence of von Hippel-Lindau disease tumor suppressor/ALK tyrosine kinase receptor/Nucleophosmin (Homo sapiens) (P40337 whole entry partner, the tested form may be a part): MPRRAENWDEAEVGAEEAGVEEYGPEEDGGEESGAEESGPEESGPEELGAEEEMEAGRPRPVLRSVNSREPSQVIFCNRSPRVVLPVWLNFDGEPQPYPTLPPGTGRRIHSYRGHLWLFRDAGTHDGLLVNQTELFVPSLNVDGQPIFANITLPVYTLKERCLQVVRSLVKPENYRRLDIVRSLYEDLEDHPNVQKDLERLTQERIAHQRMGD
Sequence of von Hippel-Lindau disease tumor suppressor/ALK tyrosine kinase receptor/Nucleophosmin (Homo sapiens) (Q9UM73 19-1620 limits assumed): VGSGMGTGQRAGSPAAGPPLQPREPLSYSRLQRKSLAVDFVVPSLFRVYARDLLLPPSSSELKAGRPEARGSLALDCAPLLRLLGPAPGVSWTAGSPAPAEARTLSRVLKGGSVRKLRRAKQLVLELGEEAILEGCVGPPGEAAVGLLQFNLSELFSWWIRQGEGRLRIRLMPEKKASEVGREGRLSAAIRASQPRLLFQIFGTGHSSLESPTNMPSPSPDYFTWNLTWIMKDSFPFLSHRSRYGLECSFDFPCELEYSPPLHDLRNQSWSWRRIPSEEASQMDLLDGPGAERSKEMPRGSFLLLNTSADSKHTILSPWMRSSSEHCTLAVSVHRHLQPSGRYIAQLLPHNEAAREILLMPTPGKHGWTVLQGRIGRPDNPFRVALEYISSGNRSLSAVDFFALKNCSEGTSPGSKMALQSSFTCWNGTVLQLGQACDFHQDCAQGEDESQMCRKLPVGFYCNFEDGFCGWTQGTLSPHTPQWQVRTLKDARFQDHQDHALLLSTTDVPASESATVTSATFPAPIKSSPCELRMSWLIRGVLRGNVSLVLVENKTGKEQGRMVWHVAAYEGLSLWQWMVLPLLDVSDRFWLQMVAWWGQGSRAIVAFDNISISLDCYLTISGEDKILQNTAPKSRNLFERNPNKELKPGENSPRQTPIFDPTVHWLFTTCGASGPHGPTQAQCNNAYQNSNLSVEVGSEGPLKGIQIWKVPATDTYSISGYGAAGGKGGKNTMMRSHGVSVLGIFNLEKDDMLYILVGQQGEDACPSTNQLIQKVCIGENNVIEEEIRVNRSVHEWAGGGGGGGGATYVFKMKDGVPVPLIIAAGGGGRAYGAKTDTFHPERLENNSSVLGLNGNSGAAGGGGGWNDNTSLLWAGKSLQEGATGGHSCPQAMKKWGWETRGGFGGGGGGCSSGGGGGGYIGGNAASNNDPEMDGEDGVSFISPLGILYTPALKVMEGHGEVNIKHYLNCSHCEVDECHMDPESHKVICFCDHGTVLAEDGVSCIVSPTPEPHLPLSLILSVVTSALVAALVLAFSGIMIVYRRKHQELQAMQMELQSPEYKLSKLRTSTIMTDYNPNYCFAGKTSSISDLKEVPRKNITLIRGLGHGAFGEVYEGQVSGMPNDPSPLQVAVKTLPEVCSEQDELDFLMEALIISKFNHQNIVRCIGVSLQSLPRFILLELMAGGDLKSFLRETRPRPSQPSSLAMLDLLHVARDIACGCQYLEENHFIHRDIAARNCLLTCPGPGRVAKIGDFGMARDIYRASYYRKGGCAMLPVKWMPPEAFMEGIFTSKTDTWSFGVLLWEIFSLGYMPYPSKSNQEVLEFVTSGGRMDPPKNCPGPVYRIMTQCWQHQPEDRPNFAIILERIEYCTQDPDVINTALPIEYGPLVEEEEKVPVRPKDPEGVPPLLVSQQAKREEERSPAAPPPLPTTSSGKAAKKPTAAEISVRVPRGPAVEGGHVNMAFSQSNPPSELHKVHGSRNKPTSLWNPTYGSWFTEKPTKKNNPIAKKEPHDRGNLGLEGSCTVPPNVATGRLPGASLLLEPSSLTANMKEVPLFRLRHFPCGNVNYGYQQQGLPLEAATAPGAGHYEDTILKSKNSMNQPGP

IC50 [1] | IC50 [2] | IC50 [3] | IC50 [5] | IC50 [6] | Activity [8] | SMILES | Activity [4] | inhibition in vivo at 25 mg/kg/day [7]
10.9 µM | 5.86 µM | 2.34 µM | 5.81 µM | 4.51 µM | – | Cc1cc(Nc2ncc(Cl)c(Nc3ccccc3S(=O)(=O)C(C)C)n2)c(OC(C)C)cc1C1CCN(CCC(=O)NCCOCCOCCNCC(=O)Nc2cccc3c2C(=O)N(C2CCC(=O)NC2=O)C3=O)CC1 (centres undefined) | Toxic | –
> 20 µM | 4.36 µM | 1.1 µM | 5.13 µM | 3.1 µM | – | Cc1cc(Nc2ncc(Cl)c(Nc3ccccc3S(=O)(=O)C(C)C)n2)c(OC(C)C)cc1C1CCN(CCC(=O)NCCCCCCNCC(=O)Nc2cccc3c2C(=O)N(C2CCC(=O)NC2=O)C3=O)CC1 (centres undefined) | Toxic | –
> 20 µM | 8.15 µM | 3.52 µM | 13.4 µM | 8.7 µM | – | Cc1cc(Nc2ncc(Cl)c(Nc3ccccc3S(=O)(=O)C(C)C)n2)c(OC(C)C)cc1C1CCN(CCC(=O)NCCCCNCC(=O)Nc2cccc3c2C(=O)N(C2CCC(=O)NC2=O)C3=O)CC1 (centres undefined) | Toxic | –
7.59 µM | 2.23 µM | 0.7 µM | 2.6 µM | 3.5 µM | – | Cc1cc(Nc2ncc(Cl)c(Nc3ccccc3S(=O)(=O)C(C)C)n2)c(OC(C)C)cc1C1CCN(CCC(=O)NCCOCCOCCNc2cccc3c2C(=O)N(C2CCC(=O)NC2=O)C3=O)CC1 (centres undefined) | Toxic | –
2.92 µM | 0.94 µM | – | 1.32 µM | 1.3 µM | – | Cc1cc(Nc2ncc(Cl)c(Nc3ccccc3S(=O)(=O)C(C)C)n2)c(OC(C)C)cc1C1CCNCC1 [CERITINIB] | – | 49%
7.23 µM | 5.78 µM | 1.83 µM | 6.73 µM | 5.74 µM | – | Cc1cc(Nc2ncc(Cl)c(Nc3ccccc3S(=O)(=O)C(C)C)n2)c(OC(C)C)cc1C1CCN(CCC(=O)NCCOCCNCC(=O)Nc2cccc3c2C(=O)N(C2CCC(=O)NC2=O)C3=O)CC1 (centres undefined) | Toxic | –
12.3 µM | 7.98 µM | 4.86 µM | 10.9 µM | 5.2 µM | – | Cc1cc(Nc2ncc(Cl)c(Nc3ccccc3S(=O)(=O)C(C)C)n2)c(OC(C)C)cc1C1CCN(CCC(=O)NCCOCCNCCC(=O)Nc2cccc3c2C(=O)N(C2CCC(=O)NC2=O)C3=O)CC1 (centres undefined) | Toxic | –
– | – | – | – | – | > 90% | Cc1cc(Nc2ncc(Cl)c(Nc3ccccc3S(=O)(=O)C(C)C)n2)c(OC(C)C)cc1C1CCN(C(=O)CCCC(=O)N[C@H](C(=O)N2C[C@H](O)C[C@H]2C(=O)NCc2ccc(-c3scnc3C)cc2)C(C)(C)C)CC1 | – | –
> 20 µM | 7.67 µM | 2.66 µM | > 20 µM | 15.1 µM | – | Cc1cc(Nc2ncc(Cl)c(Nc3ccccc3S(=O)(=O)C(C)C)n2)c(OC(C)C)cc1C1CCN(CCC(=O)NCCCCCCCCNCC(=O)Nc2cccc3c2C(=O)N(C2CCC(=O)NC2=O)C3=O)CC1 (centres undefined) | Toxic | –
9.33 µM | 6.99 µM | 1.3 µM | > 20 µM | > 20 µM | – | Cc1cc(Nc2ncc(Cl)c(Nc3ccccc3S(=O)(=O)C(C)C)n2)c(OC(C)C)cc1C1CCN(CCC(=O)NCCCCNC(=O)COc2cccc3c2C(=O)N(C2CCC(=O)NC2=O)C3=O)CC1 (centres undefined) | Toxic | –
